Assay results as given in patent EP4603105A1, “PHARMACEUTICAL COMPOSITION CONTAINING CYCLIC COMPOUND HAVING SELECTIVE KRAS INHIBITORY EFFECT AGAINST HRAS AND NRAS” (CHUGAI SEIYAKU KABUSHIKI KAISHA, priority 2022, dated 2024).
*1 amine or outer side, *2 acyl side, *3 side chain or, on linkers, in order; H or OH if unused. Where a SMILES comes first, the peptide text is derived from it. Bridges are numbered along the chain shown (N, C = ends). [ ]: non-standard residue; d: D form. The star is where a group is joined. hPhe(3-Cl-4-CF3) = N[C@@H](CCc1ccc(C(F)(F)F)c(Cl)c1)C(=O)O; NPrPhe(4-CF3) = CCCN[C@@H](Cc1ccc(C(F)(F)F)cc1)C(=O)O; X26 = CCCN([C@@H](Cc1ccc(F)cc1)C(=O)[*:2])[*:1]; X15 = CCCN([C@@H](Cc1ccccc1)C(=O)[*:2])[*:1]; NEtPhe(4-F) = CCN[C@@H](Cc1ccc(F)cc1)C(=O)O; NMePhe(4-F) = CN[C@@H](Cc1ccc(F)cc1)C(=O)O; NMeGly(cPent) = CN[C@H](C(=O)O)C1CCCC1; Pro(4,4-F2) = O=C(O)[C@@H]1CC(F)(F)CN1; NEtPhe = CCN[C@@H](Cc1ccccc1)C(=O)O; NMeGly(cBu) = CN[C@H](C(=O)O)C1CCC1; NMeD = CN[C@@H](CC(=O)O)C(=O)O; NMeL = CN[C@@H](CC(C)C)C(=O)O; NMeNva = CCC[C@H](NC)C(=O)O; NMeAbu = CC[C@H](NC)C(=O)O; Morpholide = C1CN(*)CCO1; NMeA = CN[C@@H](C)C(=O)O; Ac5c = NC1(C(=O)O)CCCC1; Aze = O=C(O)[C@@H]1CCN1; Ac4c = NC1(C(=O)O)CCC1; Sar = CNCC(=O)O

Legend:
[1] = tested on: human lung cancer strain NCI-H441; type: cell-based
In short: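 Readout: […] after the ATP-based reagent. Compound: serial dilutions in dimethyl sulfoxide.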

[2] = biological target: GDP-bound NRAS wild-type protein (Homo sapiens, UniProt P01111); test: Binding to NRAS by surface plasmon resonance (SPR), KD and KD ratio to KRAS; conditions: ratio of KD for GDP-bound NRAS wild-type protein to KD for KRAS
In short: (§1)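 GDP-bound biotin-Avi RAS captured at ~100–300 RU, 30°C, pH 7.4 HBS containing 10 µM GDP, 10 mM MgCl2, 1 mM DTT, 0.01% Tween 20 and 4% DMSO. KD by 1:1 fitting.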

HRAS wild-type protein = HRAS wild-type protein (Homo sapiens, UniProt P01112); test: Binding to HRAS by surface plasmon resonance (SPR), KD and KD ratio to KRAS; conditions: ratio of KD for HRAS wild-type protein to KD for KRAS
In short: as §1

HRAS wild-type protein, sequence (P01112 whole entry): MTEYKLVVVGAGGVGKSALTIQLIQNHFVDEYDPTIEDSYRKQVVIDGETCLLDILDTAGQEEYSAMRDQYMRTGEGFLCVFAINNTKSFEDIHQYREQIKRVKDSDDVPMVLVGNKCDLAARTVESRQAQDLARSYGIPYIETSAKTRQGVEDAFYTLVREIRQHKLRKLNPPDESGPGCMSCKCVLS
GDP-bound NRAS wild-type protein, sequence (P01111 whole entry): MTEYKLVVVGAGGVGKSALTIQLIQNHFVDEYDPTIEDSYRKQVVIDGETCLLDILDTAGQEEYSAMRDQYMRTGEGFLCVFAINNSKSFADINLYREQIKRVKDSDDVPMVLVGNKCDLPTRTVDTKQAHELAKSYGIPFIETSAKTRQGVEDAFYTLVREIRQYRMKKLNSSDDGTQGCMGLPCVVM

Structure (SMILES) | IC50 [1] [nM] | NRAS /KRAS [2] | HRAS /KRAS (HRAS wild-type protein)
CCCN1C(=O)[C@@H]2CCN2C(=O)[C@H](C)N(C)C(=O)[C@H]([C@@H](C)CC)NC(=O)[C@H](C2CCC2)N(C)C(=O)C[C@@H](C(=O)N2CCOCC2)N(C)C(=O)[C@H](C2CCCC2)N(C)C(=O)C2(CCCC2)NC(=O)[C@@H]2CC(F)(F)CN2C(=O)[C@H](CCc2ccc(C(F)(F)F)c(Cl)c2)NC(=O)CN(C)C(=O)[C@@H]1Cc1ccc(C(F)(F)F)cc1 [PP0204] ([NMeGly(cBu)]I[NMeA][Aze][NPrPhe(4-CF3)][Sar][hPhe(3-Cl-4-CF3)][Pro(4,4-F2)][Ac5c][NMeGly(cPent)][NMeD]-Morpholide; lactam N-11) | 5.4 | C (A compound having a KD ratio of 0.1 or more and less than 3 is denoted as C) | C (A compound having a KD ratio of 0.1 or more and less than 3 is denoted as C)
CCC[C@H]1C(=O)N[C@@H]([C@@H](C)CC)C(=O)N(C)[C@@H](C)C(=O)N2CC[C@H]2C(=O)N(CCC)[C@@H](Cc2ccc(C(F)(F)F)cc2)C(=O)N(C)CC(=O)N[C@@H](CCc2ccc(C(F)(F)F)c(Cl)c2)C(=O)N2CC(F)(F)C[C@H]2C(=O)NC2(CCCC2)C(=O)N(C)[C@@H](C2CCCC2)C(=O)N(C)[C@H](C(=O)N2CCOCC2)CC(=O)N1C [PP0205] ([NMeNva]I[NMeA][Aze][NPrPhe(4-CF3)][Sar][hPhe(3-Cl-4-CF3)][Pro(4,4-F2)][Ac5c][NMeGly(cPent)][NMeD]-Morpholide; lactam N-11) | 4.6 | C (A compound having a KD ratio of 0.1 or more and less than 3 is denoted as C) | C (A compound having a KD ratio of 0.1 or more and less than 3 is denoted as C)
CCCN1C(=O)[C@@H]2CCN2C(=O)[C@H](C)N(C)C(=O)[C@H]([C@@H](C)CC)NC(=O)[C@H](CC)N(C)C(=O)C[C@@H](C(=O)N2CCOCC2)N(C)C(=O)[C@H](C2CCCC2)N(C)C(=O)C2(CCCC2)NC(=O)[C@@H]2CC(F)(F)CN2C(=O)[C@H](CCc2ccc(C(F)(F)F)c(Cl)c2)NC(=O)CN(C)C(=O)[C@@H]1Cc1ccc(C(F)(F)F)cc1 [PP0206] ([NMeAbu]I[NMeA][Aze][NPrPhe(4-CF3)][Sar][hPhe(3-Cl-4-CF3)][Pro(4,4-F2)][Ac5c][NMeGly(cPent)][NMeD]-Morpholide; lactam N-11) | 2.2 | C (A compound having a KD ratio of 0.1 or more and less than 3 is denoted as C) | B (a compound having 3 or more and less than 10 is denoted as B)
CCCN1C(=O)CN(C)C(=O)CN(C)C(=O)[C@H]([C@@H](C)CC)NC(=O)[C@H](CC(C)C)N(C)C(=O)C[C@@H](C(=O)N2CCOCC2)N(C)C(=O)[C@H](C2CCCC2)N(C)C(=O)C2(CCC2)NC(=O)[C@@H]2CC(F)(F)CN2C(=O)[C@H](CCc2ccc(C(F)(F)F)c(Cl)c2)NC(=O)CN(C)C(=O)[C@@H]1Cc1ccc(C(F)(F)F)cc1 [PP0207] ([NMeL]I[Sar][Sar][NPrPhe(4-CF3)][Sar][hPhe(3-Cl-4-CF3)][Pro(4,4-F2)][Ac4c][NMeGly(cPent)][NMeD]-Morpholide; lactam N-11) | 1.9 | B (a compound having 3 or more and less than 10 is denoted as B) | C (A compound having a KD ratio of 0.1 or more and less than 3 is denoted as C)
CCCN1C(=O)[C@@H]2CCN2C(=O)[C@H](C)N(C)C(=O)[C@H]([C@@H](C)CC)NC(=O)[C@H](CC(C)C)N(C)C(=O)C[C@@H](C(=O)N2CCOCC2)N(C)C(=O)[C@H](C2CCCC2)N(C)C(=O)C2(CCC2)NC(=O)[C@@H]2CC(F)(F)CN2C(=O)[C@H](CCc2ccc(C(F)(F)F)c(Cl)c2)NC(=O)CN(C)C(=O)[C@@H]1Cc1ccc(C(F)(F)F)cc1 [PP0208] ([NMeL]I[NMeA][Aze][NPrPhe(4-CF3)][Sar][hPhe(3-Cl-4-CF3)][Pro(4,4-F2)][Ac4c][NMeGly(cPent)][NMeD]-Morpholide; lactam N-11) | 4.6 | C (A compound having a KD ratio of 0.1 or more and less than 3 is denoted as C) | C (A compound having a KD ratio of 0.1 or more and less than 3 is denoted as C)
CC[C@H](C)[C@@H]1NC(=O)[C@H](CC(C)C)N(C)C(=O)C[C@@H](C(=O)N2CCOCC2)N(C)C(=O)[C@H](C2CCCC2)N(C)C(=O)C2(CCCC2)NC(=O)[C@@H]2CCCN2C(=O)[C@H](CCc2ccc(C(F)(F)F)c(Cl)c2)NC(=O)CN(C)C(=O)[C@H](Cc2ccccc2)N(CC)C(=O)CN(C)C(=O)CN(C)C1=O [PP0210] ([NMeL]I[Sar][Sar][NEtPhe][Sar][hPhe(3-Cl-4-CF3)]P[Ac5c][NMeGly(cPent)][NMeD]-Morpholide; lactam N-11) | 17.1 | C (A compound having a KD ratio of 0.1 or more and less than 3 is denoted as C) | C (A compound having a KD ratio of 0.1 or more and less than 3 is denoted as C)
CCCN1C(=O)CN(C)C(=O)CN(C)C(=O)[C@H]([C@@H](C)CC)NC(=O)[C@H](CC(C)C)N(C)C(=O)C[C@@H](C(=O)N2CCOCC2)N(C)C(=O)[C@H](C2CCCC2)N(C)C(=O)C2(CCCC2)NC(=O)[C@@H]2CCCN2C(=O)[C@H](CCc2ccc(C(F)(F)F)c(Cl)c2)NC(=O)CN(C)C(=O)[C@@H]1Cc1ccccc1 [PP0211] ([NMeL]I[Sar][Sar][X15][Sar][hPhe(3-Cl-4-CF3)]P[Ac5c][NMeGly(cPent)][NMeD]-Morpholide; lactam N-11) | 10.8 | B (a compound having 3 or more and less than 10 is denoted as B) | C (A compound having a KD ratio of 0.1 or more and less than 3 is denoted as C)
CC[C@H](C)[C@@H]1NC(=O)[C@H](CC(C)C)N(C)C(=O)C[C@@H](C(=O)N2CCOCC2)N(C)C(=O)[C@H](C2CCCC2)N(C)C(=O)C2(CCCC2)NC(=O)[C@@H]2CCCN2C(=O)[C@H](CCc2ccc(C(F)(F)F)c(Cl)c2)NC(=O)CN(C)C(=O)[C@H](Cc2ccc(F)cc2)N(C)C(=O)CN(C)C(=O)CN(C)C1=O [PP0212] ([NMeL]I[Sar][Sar][NMePhe(4-F)][Sar][hPhe(3-Cl-4-CF3)]P[Ac5c][NMeGly(cPent)][NMeD]-Morpholide; lactam N-11) | 26.6 | C (A compound having a KD ratio of 0.1 or more and less than 3 is denoted as C) | C (A compound having a KD ratio of 0.1 or more and less than 3 is denoted as C)
CC[C@H](C)[C@@H]1NC(=O)[C@H](CC(C)C)N(C)C(=O)C[C@@H](C(=O)N2CCOCC2)N(C)C(=O)[C@H](C2CCCC2)N(C)C(=O)C2(CCCC2)NC(=O)[C@@H]2CCCN2C(=O)[C@H](CCc2ccc(C(F)(F)F)c(Cl)c2)NC(=O)CN(C)C(=O)[C@H](Cc2ccc(F)cc2)N(CC)C(=O)CN(C)C(=O)CN(C)C1=O [PP0213] ([NMeL]I[Sar][Sar][NEtPhe(4-F)][Sar][hPhe(3-Cl-4-CF3)]P[Ac5c][NMeGly(cPent)][NMeD]-Morpholide; lactam N-11) | 10.3 | C (A compound having a KD ratio of 0.1 or more and less than 3 is denoted as C) | C (A compound having a KD ratio of 0.1 or more and less than 3 is denoted as C)
CCCN1C(=O)CN(C)C(=O)CN(C)C(=O)[C@H]([C@@H](C)CC)NC(=O)[C@H](CC(C)C)N(C)C(=O)C[C@@H](C(=O)N2CCOCC2)N(C)C(=O)[C@H](C2CCCC2)N(C)C(=O)C2(CCCC2)NC(=O)[C@@H]2CCCN2C(=O)[C@H](CCc2ccc(C(F)(F)F)c(Cl)c2)NC(=O)CN(C)C(=O)[C@@H]1Cc1ccc(F)cc1 [PP0214] ([NMeL]I[Sar][Sar][X26][Sar][hPhe(3-Cl-4-CF3)]P[Ac5c][NMeGly(cPent)][NMeD]-Morpholide; lactam N-11) | 5.4 | B (a compound having 3 or more and less than 10 is denoted as B) | C (A compound having a KD ratio of 0.1 or more and less than 3 is denoted as C)
CC[C@H](C)[C@@H]1NC(=O)[C@H](CC(C)C)N(C)C(=O)C[C@@H](C(=O)N2CCOCC2)N(C)C(=O)[C@H](C2CCCC2)N(C)C(=O)C2(CCCC2)NC(=O)[C@@H]2CCCN2C(=O)[C@H](CCc2ccc(C(F)(F)F)c(Cl)c2)NC(=O)CN(C)C(=O)[C@H](Cc2ccccc2)N(CC)C(=O)[C@@H]2CCN2C(=O)[C@H](C)N(C)C1=O [PP0215] ([NMeL]I[NMeA][Aze][NEtPhe][Sar][hPhe(3-Cl-4-CF3)]P[Ac5c][NMeGly(cPent)][NMeD]-Morpholide; lactam N-11) | 4.8 | C (A compound having a KD ratio of 0.1 or more and less than 3 is denoted as C) | C (A compound having a KD ratio of 0.1 or more and less than 3 is denoted as C)
CCCN1C(=O)[C@@H]2CCN2C(=O)[C@H](C)N(C)C(=O)[C@H]([C@@H](C)CC)NC(=O)[C@H](CC(C)C)N(C)C(=O)C[C@@H](C(=O)N2CCOCC2)N(C)C(=O)[C@H](C2CCCC2)N(C)C(=O)C2(CCCC2)NC(=O)[C@@H]2CCCN2C(=O)[C@H](CCc2ccc(C(F)(F)F)c(Cl)c2)NC(=O)CN(C)C(=O)[C@@H]1Cc1ccccc1 [PP0216] ([NMeL]I[NMeA][Aze][X15][Sar][hPhe(3-Cl-4-CF3)]P[Ac5c][NMeGly(cPent)][NMeD]-Morpholide; lactam N-11) | 3 | C (A compound having a KD ratio of 0.1 or more and less than 3 is denoted as C) | B (a compound having 3 or more and less than 10 is denoted as B)
